Source: patent US20260176267A1, “PREPARATION OF IMIDAZOPYRIDINE AND IMIDAZOPYRIDAZINE DERIVATIVES AS NOVEL DIACYLGLYCERIDE O-ACYLTRANSFERASE 2 INHIBITORS” (Merck Sharp & Dohme LLC, priority 2022, published 2026)

Biological target: T1, human DGAT2 (hDGAT2) (Homo sapiens, UniProt Q96PD7)
T1 construct: made in house; host or cells: Sf-9 insect cells (baculovirus), membrane fraction
T1 sequence (Q96PD7 1-388): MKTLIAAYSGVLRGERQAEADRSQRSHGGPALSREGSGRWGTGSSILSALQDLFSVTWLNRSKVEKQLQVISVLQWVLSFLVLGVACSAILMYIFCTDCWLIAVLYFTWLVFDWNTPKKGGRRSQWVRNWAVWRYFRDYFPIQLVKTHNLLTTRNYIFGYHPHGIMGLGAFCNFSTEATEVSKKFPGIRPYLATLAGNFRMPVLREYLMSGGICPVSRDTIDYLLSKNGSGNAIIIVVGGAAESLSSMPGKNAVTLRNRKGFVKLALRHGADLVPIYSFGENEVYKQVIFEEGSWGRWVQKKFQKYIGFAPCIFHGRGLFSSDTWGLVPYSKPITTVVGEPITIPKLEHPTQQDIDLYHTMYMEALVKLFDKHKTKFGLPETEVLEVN
Assay: DGAT2 Enzymatic Activity Assay
Format: biochemical
Conditions: membrane prep of Sf-9 cells expressing hDGAT2; 13C18-triolein product by LC/MS/MS; 25 μM diolein, 5 μM 13C oleoyl-CoA, rt
Description: Sf-9 insect cells were maintained in Grace's insect cell culture medium with 10% heated-inactivated fetal bovine serum, 1% Pluronic F-68 and 0.14 μg/ml Kanamycine sulfate at 27° C. in a shaker incubator. After infection with untagged baculovirus expressing human DGAT2 (hDGAT2) at multiplicity of infection (MOI) 3 for 48 hours, cells were harvested. Cell pellets were suspended in buffer containing 10 mM Tris-HCl pH 7.5, 1 mM EDTA, 250 mM sucrose and Complete Protease Inhibitor Cocktail (Sigma Aldrich), and sonicated on ice. Cell debris were removed by centrifugation at 2000×g for 15 minutes. Membrane fractions were isolated by ultracentrifugation (100,000×g), resuspended in the same buffer, and frozen (−80° C.) for later use. The protein concentration was determined with the Pierce™ BCA Protein Assay Kit (Thermo Fisher Scientific).
LC/MS/MS analyses were performed using Thermal Fisher's LX4-TSQ Vantage system. This system consists of an Agilent binary high-performance liquid chromatography (HPLC) pump and a TSQ Vantage triple quadrupole MS/MS instrument. For each sample, 2 μL samples from the top organic layer of in-plate liquid-liquid extraction were injected onto a Thermo Betabasic C4 column (2.1 mm×20 mm, 5 μm particle size). The samples were then eluted using the following conditions; mobile phase: Isopropanol:acetonitrile/10 mM ammonium formate=50/35/15 (v/v/v), flow rate: 0.8 mL/min, temperature: 25° C. Data was acquired in positive mode using a heated electrospray ionization (HESI) interface. The operational parameters for the TSQ Vantage MS/MS instrument were a spray voltage of 3000 V, capillary temperature of 280° C., vaporizer temperature 400° C., sheath gas 45 arbitrary unit. Aux gas 10 arbitrary units. […] The peak area was integrated by Xcalibur Quan software. The ratio between the ^13C18 triolein generated in the reaction and spiked in internal standard ^13C21-triolein was used to generate percentage inhibition and IC50 values. Compound percentage inhibition was calculated by the following formula: Inhibition %=1−[(compound response−low control)/(high control−low control)]×100%.
DGAT2 activity was determined by measuring the amount of enzymatic product ^13C18-triolein (^13C-1,2,3-Tri(cis-9-octadecenoyl)glycerol) using the membrane prep mentioned above. The assay was carried out in ABgene 384-well assay plates in a final volume of 25 μL at rt.

| Compound | IC50 |
| --- | --- |
| CCOc1cccnc1Oc1ccc2nc(C(=O)NC3CC(C)(C)OC(C)(C)C3)cn2c1 [Example 38, 6-[(3-ethoxy-2-pyridyl)oxy]-N-(2,2,6,6-tetramethyltetrahydropyran-4-yl)imidazo[1,2-a]pyridine-2-carboxamide] | 0.056 µM |
| Cc1c(C(=O)NC2(CC#N)CCS(=O)(=O)CC2)nc2ccc(Oc3ncc(Cl)cc3OCC(F)F)cn12 [Example 76, 6-[[5-chloro-3-(2,2-difluoroethoxy)-2-pyridyl]oxy]-N-[4-(cyanomethyl)-1,1-dioxo-thian-4-yl]-3-methyl-imidazo[1,2-a]pyridine-2-carboxamide] | 0.0012 µM |
| Cc1c(Oc2ncc(F)cc2OCC(F)F)ccc2nc(C(=O)NC3(C)CC(F)(F)C3)cn12 [Example 28, 6-[[3-(2,2-difluoroethoxy)-5-fluoro-2-pyridyl]oxy]-N-(3,3-difluoro-1-methyl-cyclobutyl)-5-methyl-imidazo[1,2-a]pyridine-2-carboxamide] | 0.059 µM |
| Cc1c(C(=O)NC2(C)CCS(=O)(=O)CC2)nc2c(F)cc(Oc3ncccc3OCC(F)(F)F)cn12 [Example 117, 8-fluoro-3-methyl-N-(4-methyl-1,1-dioxo-thian-4-yl)-6-[[3-(2,2,2-trifluoroethoxy)-2-pyridyl]oxy]imidazo[1,2-a]pyridine-2-carboxamide] | 0.0012 µM |
| CC(F)(F)COc1cc(Cl)cnc1Oc1ccc2nc(C(=O)NC3(C)CCS(=O)(=O)CC3)cn2n1 [Example 154, 6-[[5-Chloro-3-(2,2-difluoropropoxy)-2-pyridyl]oxy]-N-(4-methyl-1,1-dioxo-thian-4-yl)imidazo[1,2-b]pyridazine-2-carboxamide] | 0.154 µM |
| CC(F)(F)COc1cc(Cl)cnc1Oc1ccc2nc(C(=O)NC3(C)CCS(=O)(=O)CC3)cn2c1 [Example 18, 6-[[5-chloro-3-(2,2-difluoropropoxy)-2-pyridyl]oxy]-N-(4-methyl-1,1-dioxo-thian-4-yl)imidazo[1,2-a]pyridine-2-carboxamide] | 0.002 µM |
| Cc1c(Oc2ncc(Cl)cc2OCC(F)(F)F)ccc2nc(C(=O)NC3(C)CCS(=O)(=O)CC3)cn12 [Example 17] | 0.0014 µM |
| Cc1c(C(=O)NC2(C)CN(C(=O)C(F)(F)F)C2)nc2ccc(Oc3ncc(F)cc3OCC(F)F)cn12 [Example 85, 6-[[3-(2,2-difluoroethoxy)-5-fluoro-2-pyridyl]oxy]-3-methyl-N-[3-methyl-1-(2,2,2-trifluoroacetyl)azetidin-3-yl]imidazo[1,2-a]pyridine-2-carboxamide] | 0.0016 µM |
| Cc1cn(C)nc1COc1ccc2nc(C(=O)NC3(C)CCS(=O)(=O)CC3)cn2n1 [Example 183, 6-((1,4-dimethyl-1H-pyrazol-3-yl)methoxy)-N-(4-methyl-1,1-dioxidotetrahydro-2H-thiopyran-4-yl)imidazo[1,2-b]pyridazine-2-carboxamide] | 0.808 µM |
| Cc1c(C(=O)NC2(C)CS(=O)(=O)C2)nc2ccc(Oc3ncc(Cl)cc3OCC(F)F)nn12 [Example 167, 6-((5-chloro-3-(2,2-difluoroethoxy)pyridin-2-yl)oxy)-3-methyl-N-(3-methyl-1,1-dioxidothietan-3-yl)imidazo[1,2-b]pyridazine-2-carboxamide] | 0.011 µM |
| CC(C)c1cc2nc(C(=O)NC3(C)CCS(=O)(=O)CC3)cn2cc1Oc1ncccc1OCC(F)(F)F [Example 48, 7-isopropyl-N-(4-methyl-1,1-dioxo-thian-4-yl)-6-[[3-(2,2,2-trifluoroethoxy)-2-pyridyl]oxy]imidazo[1,2-a]pyridine-2-carboxamide] | 0.059 µM |
| Cc1c(C(=O)NC2(C)CS(=O)(=O)C2)nc2ccc(Oc3ncccc3OCC(F)F)cn12 [Example 90, 6-[[3-(2,2-difluoroethoxy)-2-pyridyl]oxy]-3-methyl-N-(3-methyl-1,1-dioxo-thietan-3-yl)imidazo[1,2-a]pyridine-2-carboxamide] | 0.005 µM |
| Cc1c(C(=O)NC2(C)CCS(=O)(=O)CC2)nc2ccc(OCCC(F)(F)F)cn12 [Example 128, 3-methyl-N-(4-methyl-1,1-dioxo-thian-4-yl)-6-(3,3,3-trifluoropropoxy)imidazo[1,2-a]pyridine-2-carboxamide] | > 9.99 µM |
| Cc1c(C(=O)NC2(C(C)C)CCS(=O)(=O)CC2)nc2ccc(Oc3ncc(F)cc3OCC(F)(F)F)cn12 [Example 91, 6-[[5-fluoro-3-(2,2,2-trifluoroethoxy)-2-pyridyl]oxy]-N-(4-isopropyl-1,1-dioxo-thian-4-yl)-3-methyl-imidazo[1,2-a]pyridine-2-carboxamide] | 0.022 µM |
| Cc1c(Oc2ncc(F)cc2OCC(F)(F)F)ccc2nc(C(=O)NC3(C)CCS(=O)(=O)CC3)cn12 [Example 34, 6-[[5-fluoro-3-(2,2,2-trifluoroethoxy)-2-pyridyl]oxy]-5-methyl-N-(4-methyl-1,1-dioxo-thian-4-yl)imidazo[1,2-a]pyridine-2-carboxamide] | 0.0028 µM |
| Cc1cc(Oc2ncc(F)cc2OCC(F)F)nn2cc(C(=O)N[C@H]3CCCC(F)(F)[C@@H]3O)nc12 [Example 174, N-((1S,2R)-3,3-difluoro-2-hydroxycyclohexyl)-6-((3-(2,2-difluoroethoxy)-5-fluoropyridin-2-yl)oxy)-8-methylimidazo[1,2-b]pyridazine-2-carboxamide] | 0.014 µM |
| Cc1cc2nc(C(=O)NC3(C)CCS(=O)(=O)CC3)cn2cc1Oc1ncc(Cl)cc1OCC1(F)CC1 [Example 10, 6-[[5-chloro-3-[(1-fluorocyclopropyl)methoxy]-2-pyridyl]oxy]-7-methyl-N-(4-methyl-1,1-dioxo-thian-4-yl)imidazo[1,2-a]pyridine-2-carboxamide] | 0.013 µM |
| Cc1c(C(=O)NC2(C)CCS(=O)(=O)CC2)nc2ccc(Oc3ncc(S(C)(=O)=O)cc3OCC(F)(F)F)cn12 [Example 150, 3-methyl-N-(4-methyl-1,1-dioxo-thian-4-yl)-6-[[5-methylsulfonyl-3-(2,2,2-trifluoroethoxy)-2-pyridyl]oxy]imidazo[1,2-a]pyridine-2-carboxamide] | 0.058 µM |
| CCOc1cc(Cl)cnc1Oc1ccc2nc(C(=O)NC3(C)CCS(=O)(=O)CC3)cn2c1C [Example 8, 6-[(5-chloro-3-ethoxy-2-pyridyl)oxy]-5-methyl-N-(4-methyl-1,1-dioxo-thian-4-yl)imidazo[1,2-a]pyridine-2-carboxamide] | 0.0014 µM |
| CC1(NC(=O)c2cn3nc(Oc4ncc(F)cc4OCC(F)F)ccc3n2)CCS(=O)(=O)CC1 [Example 160, 6-[[3-(2,2-Difluoroethoxy)-5-fluoro-2-pyridyl]oxy]-N-(4-methyl-1,1-dioxo-thian-4-yl)imidazo[1,2-b]pyridazine-2-carboxamide] | 0.0039 µM |
| CC1(NC(=O)c2nc3cc(Cl)c(Oc4nccnc4OCC(F)(F)F)nn3c2Cl)CCS(=O)(=O)CC1 [Example 177, 3,7-dichloro-N-(4-methyl-1,1-dioxo-thian-4-yl)-6-[3-(2,2,2-trifluoroethoxy)pyrazin-2-yl]oxy-imidazo[1,2-b]pyridazine-2-carboxamide] | 0.391 µM |
| Cc1c(C(=O)NC2(C)CS(=O)(=O)C2)nc2ccc(Oc3ncc(C(F)(F)F)nc3OCC(F)(F)F)cn12 [Example 103, 3-methyl-N-(3-methyl-1,1-dioxo-thietan-3-yl)-6-[3-(2,2,2-trifluoroethoxy)-5-(trifluoromethyl)pyrazin-2-yl]oxy-imidazo[1,2-a]pyridine-2-carboxamide] | 0.071 µM |
| Cc1c(C(=O)NC2(C)CCS(=O)(=O)CC2)nc2ccc(Oc3ncc(C4CC4)cc3OCC(F)(F)F)cn12 [Example 145, 6-[[5-cyclopropyl-3-(2,2,2-trifluoroethoxy)-2-pyridyl]oxy]-3-methyl-N-(4-methyl-1,1-dioxo-thian-4-yl)imidazo[1,2-a]pyridine-2-carboxamide] | 0.133 µM |
| CC1(NC(=O)c2nc3ccc(Oc4ncccc4OCC(F)(F)F)cn3c2C(N)=O)CCS(=O)(=O)CC1 [Example 133, N2-(4-methyl-1,1-dioxo-thian-4-yl)-6-[[3-(2,2,2-trifluoroethoxy)-2-pyridyl]oxy-]imidazo[1,2-a]pyridine-2,3-dicarboxamide] | 0.028 µM |
